# Laboratory results as given in ChEMBL document CHEMBL5370643, “Discovery of MK-1468: A Potent, Kinome-Selective, Brain-Penetrant Amidoisoquinoline LRRK2 Inhibitor for the Potential Treatment of Parkinson's Disease” (J Med Chem, 2023).
# Experiments:
# [1] = Toxicity in rhesus monkey assessed as body weight loss at 100 to 800 mg/kg, po administered once daily for 7 days; format: organism-based, Macaca mulatta; conditions: in vivo, 168 h, dose 100-800 mg/kg, time 7 day
# [2] = Kinetic solubility of compound in PBS at pH 2 measured after 24 hrs by UPLC/DAD analysis; format: physicochemical; conditions: read-out: Kinetic_solubility
# [3] = Toxicity in Wistar-Han rat assessed as effect on body temperature at 225 mg/kg, po administered as single dose and measured upto 24 hrs by telemetric analysis; format: organism-based; conditions: in vivo
# [4] = Mutagenicity in Salmonella typhimurium TA100 at 30 to 5000 ug/plate incubated for 48 hrs in absence of Wistar-Han rat S9 fraction by Ames test; format: toxicity; conditions: salmonella enterica subsp. enterica serovar typhimurium, s9, 48 h
# hERG (KCNH2) = hERG (KCNH2) (Homo sapiens, UniProt Q12809); assay: Inhibition of hERG expressed in CHO cells at 30 uM by QPatch voltage clamp assay relative to control; format: toxicity, cell-based; conditions: CHO cells expressing hERG
# [5] = Oral bioavailability in rhesus monkey at 10 mg/kg measured after 24 hrs by LC-MS/MS analysis; format: ADME, organism-based, Macaca mulatta; conditions: in vivo
# [6] = Total clearance in rhesus monkey at 3 mg/kg, iv measured after 24 hrs by LC-MS/MS analysis; format: ADME, organism-based, Macaca mulatta; conditions: in vivo
# [7] = target: KCNQ1/KCNE1 (IKs, Kv7.1/MinK) (Homo sapiens, UniProt P15382+P51787); assay: Inhibition of human KCNQ1/KCNE1 expressed in HEK293 cells at 30 uM by QPatch voltage clamp assay relative to control; format: cell-based; conditions: HEK293 cells expressing human KCNQ1/KCNE1
# Sequence of KCNQ1/KCNE1 (IKs, Kv7.1/MinK) (P51787 whole entry): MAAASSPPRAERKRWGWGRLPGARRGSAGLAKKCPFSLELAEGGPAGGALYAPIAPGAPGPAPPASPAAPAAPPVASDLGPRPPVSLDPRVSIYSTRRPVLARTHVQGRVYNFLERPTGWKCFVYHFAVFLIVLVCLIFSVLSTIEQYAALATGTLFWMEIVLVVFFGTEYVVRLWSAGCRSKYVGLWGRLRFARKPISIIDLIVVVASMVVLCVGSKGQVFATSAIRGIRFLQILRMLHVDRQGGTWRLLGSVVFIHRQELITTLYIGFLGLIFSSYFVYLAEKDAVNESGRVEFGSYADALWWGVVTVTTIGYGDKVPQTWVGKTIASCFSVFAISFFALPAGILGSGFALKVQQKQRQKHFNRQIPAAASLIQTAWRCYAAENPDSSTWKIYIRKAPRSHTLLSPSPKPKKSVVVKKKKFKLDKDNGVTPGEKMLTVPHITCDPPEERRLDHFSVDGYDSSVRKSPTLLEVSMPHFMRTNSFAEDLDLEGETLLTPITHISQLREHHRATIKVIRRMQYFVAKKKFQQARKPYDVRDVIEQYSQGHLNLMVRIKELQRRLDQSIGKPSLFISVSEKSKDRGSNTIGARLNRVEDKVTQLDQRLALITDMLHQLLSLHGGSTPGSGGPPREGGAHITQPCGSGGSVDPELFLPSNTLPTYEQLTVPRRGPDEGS
# [8] = Toxicity in Wistar-Han rat assessed as effect on arterial pulse pressure at 60 mg/kg, po administered as single dose and measured upto 24 hrs by telemetric analysis; format: organism-based; conditions: in vivo
# [9] = Toxicity in rhesus monkey assessed as tolerance at 100 to 800 mg/kg, po administered once daily for 7 days; format: organism-based, Macaca mulatta; conditions: in vivo, 168 h, dose 100-800 mg/kg, time 7 day
# [10] = Toxicity in rhesus monkey assessed as lung type II pneumocyte hypertrophy at 200 to 800 mg/kg, po administered once daily for 7 days; format: organism-based, Macaca mulatta; conditions: in vivo, 168 h, dose 200-800 mg/kg, time 7 day
# [11] = Toxicity in Wistar-Han rat assessed as NOAEL measured after 7 days; conditions: in vivo, time 7 day
# [12] = Kinetic solubility of compound in PBS at pH 7 measured after 24 hrs by UPLC/DAD analysis; format: physicochemical; conditions: read-out: Kinetic_solubility
# [13] = target: Leucine-rich repeat serine/threonine-protein kinase 2 (Homo sapiens) (UniProt Q5S007); assay: Inhibition of LRRK2 in human PBMC using LRRKtide peptide as substrate assessed as Ser935 dephosphorylation preincubated with compound for 15 mins followed by substrate addition and measured after 90 mins in presence of ATP by TR-FRET assay; format: cell-based; conditions: time 105.0 min
# hERG = hERG (Homo sapiens, UniProt Q12809); assay: Inhibition of hERG expressed in CHO cells at 10 uM by QPatch voltage clamp assay relative to control; format: toxicity, cell-based; conditions: CHO cells expressing hERG
# [14] = Protein binding in dog plasma incubated for 4 hrs by equilibrium dialysis method; format: ADME, cell-free, Canis lupus familiaris; conditions: read-out: PPB (converted)
# [15] = Toxicity in Wistar-Han rat assessed as degeneration of seminiferous epithelium in testes at 750 mg/kg, po administered once daily for 7 days; format: organism-based; conditions: in vivo, 168 h, time 7 day
# [16] = Intrinsic clearance in Beagle dog at 0.5 mg/kg, iv measured after 24 hrs by LC-MS/MS analysis; format: ADME, organism-based, Canis lupus familiaris; conditions: in vivo
# [17] = Toxicity in Wistar-Han rat assessed as clinical observations at 750 mg/kg, po administered once daily for 7 days; format: organism-based; conditions: in vivo, 168 h, time 7 day
# [18] = Unbound drug concentration in guinea pig plasma at 15 mg/kg, iv administered continuously for 20 mins; format: ADME, organism-based, Cavia porcellus; conditions: in vivo
# [19] = MRT in rhesus monkey at 3 mg/kg, iv measured after 24 hrs by LC-MS/MS analysis; format: ADME, organism-based, Macaca mulatta; conditions: in vivo
# [20] = Toxicity in Wistar-Han rat assessed as effect on spontaneous locomotor activity at 225 mg/kg, po administered as single dose and measured upto 24 hrs by telemetric analysis; format: organism-based; conditions: in vivo
# Nav1.5 (SCN5A) = Nav1.5 (SCN5A) (Homo sapiens, UniProt Q14524); assay: Inhibition of human Nav1.5 expressed in HEK293 cells at 10 uM by QPatch voltage clamp assay relative to control; format: cell-based; conditions: HEK293 cells expressing human Nav1.5
# Sequence of Nav1.5 (SCN5A) (Q14524 whole entry): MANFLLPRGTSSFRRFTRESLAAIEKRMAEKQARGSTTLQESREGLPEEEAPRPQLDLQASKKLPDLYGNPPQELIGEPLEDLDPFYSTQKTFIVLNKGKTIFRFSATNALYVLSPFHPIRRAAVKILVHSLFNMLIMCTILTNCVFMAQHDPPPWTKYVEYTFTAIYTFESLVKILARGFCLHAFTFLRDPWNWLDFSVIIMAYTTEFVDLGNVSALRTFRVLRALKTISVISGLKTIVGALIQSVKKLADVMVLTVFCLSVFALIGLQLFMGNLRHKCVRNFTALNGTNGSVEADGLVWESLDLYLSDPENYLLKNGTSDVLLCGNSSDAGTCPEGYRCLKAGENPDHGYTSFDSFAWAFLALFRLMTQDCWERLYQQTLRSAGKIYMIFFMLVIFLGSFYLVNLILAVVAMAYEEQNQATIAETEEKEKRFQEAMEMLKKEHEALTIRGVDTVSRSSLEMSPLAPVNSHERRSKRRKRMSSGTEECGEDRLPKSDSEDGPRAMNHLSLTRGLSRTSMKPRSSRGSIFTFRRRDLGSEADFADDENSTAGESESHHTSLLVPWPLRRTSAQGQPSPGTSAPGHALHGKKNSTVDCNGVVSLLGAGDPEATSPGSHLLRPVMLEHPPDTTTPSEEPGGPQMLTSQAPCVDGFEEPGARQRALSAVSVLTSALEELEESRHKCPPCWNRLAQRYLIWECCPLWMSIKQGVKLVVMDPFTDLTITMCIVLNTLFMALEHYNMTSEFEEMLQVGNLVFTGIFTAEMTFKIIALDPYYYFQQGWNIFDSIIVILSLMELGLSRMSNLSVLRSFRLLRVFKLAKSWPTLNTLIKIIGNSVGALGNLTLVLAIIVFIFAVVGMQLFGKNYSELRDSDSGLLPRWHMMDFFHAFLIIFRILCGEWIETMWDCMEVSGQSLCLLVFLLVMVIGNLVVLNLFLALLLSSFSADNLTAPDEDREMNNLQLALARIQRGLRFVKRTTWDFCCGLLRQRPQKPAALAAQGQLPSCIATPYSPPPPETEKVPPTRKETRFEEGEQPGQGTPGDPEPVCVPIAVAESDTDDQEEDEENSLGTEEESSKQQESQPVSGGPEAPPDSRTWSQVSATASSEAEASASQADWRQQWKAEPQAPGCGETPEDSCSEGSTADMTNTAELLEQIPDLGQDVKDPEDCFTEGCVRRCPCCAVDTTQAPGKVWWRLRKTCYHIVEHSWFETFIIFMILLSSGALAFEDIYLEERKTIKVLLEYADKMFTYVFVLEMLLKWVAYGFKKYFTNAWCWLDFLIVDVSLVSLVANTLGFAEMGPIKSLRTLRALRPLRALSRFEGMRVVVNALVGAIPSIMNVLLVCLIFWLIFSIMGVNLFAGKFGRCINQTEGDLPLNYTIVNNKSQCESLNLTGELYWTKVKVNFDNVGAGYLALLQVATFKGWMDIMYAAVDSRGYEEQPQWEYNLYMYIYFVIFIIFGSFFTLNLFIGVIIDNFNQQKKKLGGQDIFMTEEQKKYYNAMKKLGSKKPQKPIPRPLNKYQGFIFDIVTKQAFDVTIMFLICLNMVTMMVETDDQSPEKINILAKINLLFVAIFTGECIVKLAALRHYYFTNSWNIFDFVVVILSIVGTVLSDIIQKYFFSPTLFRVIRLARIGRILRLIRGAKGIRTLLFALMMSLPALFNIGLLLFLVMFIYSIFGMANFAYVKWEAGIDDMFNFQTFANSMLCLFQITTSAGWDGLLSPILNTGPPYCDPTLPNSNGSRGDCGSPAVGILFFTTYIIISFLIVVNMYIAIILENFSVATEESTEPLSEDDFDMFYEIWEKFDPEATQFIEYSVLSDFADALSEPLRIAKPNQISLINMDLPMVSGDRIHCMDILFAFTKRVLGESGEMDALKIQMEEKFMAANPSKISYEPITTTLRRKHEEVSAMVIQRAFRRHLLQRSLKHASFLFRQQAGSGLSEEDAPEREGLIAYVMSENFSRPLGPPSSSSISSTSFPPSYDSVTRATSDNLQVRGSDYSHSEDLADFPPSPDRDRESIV
# [21] = Toxicity in Wistar-Han rat assessed as effect on spontaneous locomotor activity at 60 mg/kg, po administered as single dose and measured upto 24 hrs by telemetric analysis; format: organism-based; conditions: in vivo
# rat Mdr1a P-gp = assay: Apparent permeability across apical to basolateral side in LLC-PK1 cells transfected with rat Mdr1a P-gp incubated for 3 hrs by LC-MS/MS analysis; conditions: pig
# Nav1.5 = Nav1.5 (Homo sapiens, UniProt Q14524); assay: Inhibition of human Nav1.5 expressed in HEK293 cells at 30 uM by QPatch voltage clamp assay relative to control; format: cell-based; conditions: HEK293 cells expressing human Nav1.5
# Sequence of Nav1.5 (Q14524 whole entry): as above
# [22] = Mutagenicity in Salmonella typhimurium TA100 at 30 to 5000 ug/plate incubated for 48 hrs in presence of Wistar-Han rat S9 fraction by Ames test; format: toxicity, subcellular; conditions: salmonella enterica subsp. enterica serovar typhimurium, s9, 48 h
# [23] = Toxicity in Wistar-Han rat assessed as effect on body temperature at 60 mg/kg, po administered as single dose and measured upto 24 hrs by telemetric analysis; format: organism-based; conditions: in vivo
# [24] = Toxicity in Wistar-Han rat assessed as erosion of nonglandular stomach at 750 mg/kg, po administered once daily for 7 days; format: organism-based; conditions: in vivo, 168 h, time 7 day
# [25] = Unbound brain-to-plasma concentration ratio in iv dosed Wistar-Han rat administered as cassette dose by LC-MS/MS analysis; format: ADME, organism-based; conditions: read-out: K(p,uu,brain)
# [26] = AUC in rhesus monkey at 200 mg/kg, po administered once daily for 7 days; format: ADME, organism-based, Macaca mulatta; parameters: dose 200 mg/kg, time 7 day, route po; conditions: in vivo
# [27] = Toxicity in Wistar-Han rat assessed as micronucleus induction in bone marrow at 40 to 750 mg/kg, po administered once daily for 7 days by micronucleus test; format: organism-based; conditions: in vivo, 168 h, dose 40-750 mg/kg, time 7 day
# [28] = Toxicity in Wistar-Han rat assessed as effect on systolic blood pressure at 60 mg/kg, po administered as single dose and measured upto 24 hrs by telemetric analysis; format: organism-based; conditions: in vivo
# [29] = AUCtau in Wistar-Han rat at 48 mg administered twice a day by LC-MS/MS analysis; format: ADME; parameters: dose 48 mg; conditions: in vivo
# [30] = Cmax in Wistar-Han rat at 48 mg administered twice a day by LC-MS/MS analysis; format: ADME; parameters: dose 48 mg; conditions: in vivo
# [31] = Mutagenicity in Salmonella typhimurium TA1535 at 30 to 5000 ug/plate incubated for 48 hrs in absence of Wistar-Han rat S9 fraction by Ames test; format: toxicity; conditions: salmonella enterica subsp. enterica serovar typhimurium, s9, 48 h
# [32] = Toxicity in Wistar-Han rat assessed as effect on heart rate at 225 mg/kg, po administered as single dose and measured after 5 to 8 hrs by telemetric analysis; format: organism-based; conditions: in vivo, time 5-8 hrs
# [33] = Toxicity in Wistar-Han rat assessed as histopathological change at 750 mg/kg, po administered once daily for 7 days; format: organism-based; conditions: in vivo, 168 h, time 7 day
compound,measurement,setting,value
C[C@@]1(N2CCN(c3cc4cc(NC(=O)[C@H]5CC56CCOCC6)ncc4cc3Cl)CC2)COC[C@@H]1O,Activity,[1],Non-Toxic
same,solubility kinetic at 24 h,[2],182 µM
same,Activity,[3],Non-Toxic
same,Activity,[4],Non-Toxic
same,inhibition at 30 µM,hERG (KCNH2),39%
same,bioavailability,[5],9%
same,clearance,[6],22 mL/min/kg
same,inhibition at 30 µM,[7],18%
same,Activity,[8],Non-Toxic
same,Activity,[9],Non-Toxic
same,Activity,[10],Toxic
same,NOAEL at 168 h,[11],225 mg/kg/day
same,solubility kinetic at 24 h,[12],< 3 µM
same,fIC50,[13],2.8 nM
same,inhibition at 10 µM,hERG,15%
same,fraction unbound at 4 h,[14],0.13
same,Activity,[15],Toxic
same,CL,[16],149 mL/min/kg
same,Activity,[17],Non-Toxic
same,Cp(f),[18],5690 nM
same,MRT,[19],3.6 h
same,Activity,[20],Non-Toxic
same,inhibition at 10 µM,Nav1.5 (SCN5A),23%
same,Activity,[21],Non-Toxic
same,Papp A→B at 3 h,rat Mdr1a P-gp,30 ×10⁻⁶ cm/s
same,inhibition at 30 µM,Nav1.5,34%
same,Activity,[22],Non-Toxic
same,Activity,[23],Non-Toxic
same,Activity,[24],Toxic
same,Kp uu,[25],0.3
same,AUC at 168 h,[26],25 µM·h
same,Activity,[27],Non-Toxic
same,Activity,[28],Non-Toxic
same,AUC,[29],3 µM·h
same,Cmax,[30],750 nM
same,Activity,[31],Non-Toxic
same,Activity,[32],Toxic
same,Activity,[33],Non-Toxic
